US20040077621A1, “Antioxidants” (Academia Sinica, priority 2002, published 2004)

Experiments:
[1] = test system: human low density lipoprotein (LDL); test: LDL measurement assay (MDA formation during LDL peroxidation); format: biochemical
Description: (§1) The biological activities (e.g., antioxidative activities) of tetrapyrrole compounds described above can be evaluated by a number of assays. For example, an antioxidative activity of a test compound is evaluated by determining the compound's ability to inhibit the formation of conjugated diene during […] linoleic acid peroxidation (Wallin et al (1993) Anal. Biochem. 208: 10-15), or to inhibit the formation of malonyldialdhyde (MDA) during human low density lipoprotein (LDL) peroxidation (Yagi (1982) In lipid peroxides in Biology and Medicine. Yagi, K. (ed), pp. 223-242, Academic Press, New York). In another example, an antioxidative activity of a test compound is evaluated by determining the compound's ability to scavenge the free radicals of ? -diphenyl- ? -picrylhydrazyl (DPPH), or to scavenge superoxide anion, or to chelate Fe2+ cation, or to reduce power. See, e.g., Shimada et aL (1992) J. Agric. Food. Chem. 40: 945-948; Robak & Gryglewski (1988) Biochem. Pharma. 37: 837-841; Dinis et aL (1994) Arch Biochem Biophys 315: 161-169; and Oyaizu (1986) Nippon Shokuhin Kogyo Gakkaishi 35: 771-775.
Under a linoleic acid emulsion assay (see, e.g., Mitsuda et al. Eiyo Shokuryo (1966) 19:210-0.214 and Wallin et al. Anal. Biochem. (1993) 208:10-15), various degrees of inhibition of conjugated diene formation were observed during lipid peroxidation. In addition to Compounds 1-6, chlorophylls a and b were also tested. […] Further, compounds chelated with Mg, e.g., Compounds 1 and 2, had stronger antioxidative property than those without chelation, e.g., Compounds 3 and 4.

DPPH scavenging assay = format: physicochemical; conditions: DPPH free radical
Description: as §1
The compounds were also tested in four other assays, i.e., DPPH scavenging assay, superoxide anion scavenging assay, Fe^2+ chelation assay, and reduction assay. See Shimada et al. J. Agric. Food Chem. (1992) 40:945-948; Robak et al. Biochem. Pharnia. (1988) 37:837-841; Dinis et al. Arch. Biochem. Biophys. (1994) 315:161-169; and Oyaizu et al. Nippon Shokuhin Kogyo Gakkaishi (1986) 35:771-775. Compounds 3 and 4 were stronger scavengers than Compounds 5 and 6 in removing DPPH, which in turn were stronger scavengers than chlorophylls a and b and Compounds 1 and 2. […] The I50 values as to chelating Fe^2+ were lower than those as to scavenging DPPH free radical.

[2] = superoxide anion scavenging assay; format: physicochemical; conditions: increasing concentrations
Description: as §1
The compounds were also tested in four other assays, i.e., DPPH scavenging assay, superoxide anion scavenging assay, Fe^2+ chelation assay, and reduction assay. See Shimada et al. J. Agric. Food Chem. (1992) 40:945-948; Robak et al. Biochem. Pharnia. […]

Question: For `C=Cc1c(C)c2cc3nc(c4c5[nH]c(cc6nc(cc1[nH]2)C(C)=C6CC)c(C)c5C(=O)[C@@H]4C(=O)OC)[C@@H](CCC(=O)O)[C@@H]3C` [Compound 1], which IC50 [1] is on record?
Answer: Its IC50 is 10 µM.

Question: What about the IC50 (DPPH scavenging assay) of the same compound?
Answer: Its IC50 is greater than 700 µM.

Question: With `C=Cc1c(C)c2cc3nc(c4c5[nH]c(cc6nc(cc1[nH]2)C(C=O)=C6CC)c(C)c5C(=O)[C@@H]4C(=O)OC)[C@@H](CCC(=O)O)[C@@H]3C` [Compound 2] as the compound, how does the IC50 [1] read?
Answer: The IC50 was 42 µM.

Question: What about the IC50 (DPPH scavenging assay) of the same compound?
Answer: The IC50 was roughly 535 µM.

Question: Which IC50 [1] does the source give for `C=Cc1c(C)c2cc3nc(c4c5[nH]c(cc6nc(cc1[nH]2)C(C)=C6CC)c(C)c5C(=O)[C@@H]4C(=O)OC)[C@@H](CCC(=O)O)[C@@H]3C` [Compound 3] here?
Answer: The IC50 was 21 µM.

Question: What about the IC50 (DPPH scavenging assay) of the same compound?
Answer: The IC50 was roughly 40 µM.

Question: Which IC50 [1] does the source give for `C=Cc1c(C)c2cc3nc(c4c5[nH]c(cc6nc(cc1[nH]2)C(C=O)=C6CC)c(C)c5C(=O)[C@@H]4C(=O)OC)[C@@H](CCC(=O)O)[C@@H]3C` [Compound 4] here?
Answer: Its IC50 is 20 µM.

Question: What about the IC50 (DPPH scavenging assay) of the same compound?
Answer: The IC50 was roughly 28 µM.

Question: With `C=Cc1c(C)c2cc3nc(c4c5[nH]c(cc6nc(cc1[nH]2)C(C)=C6CC)c(C)c5C(=O)C4C(=O)OC)C(CCC(=O)OCC=C(C)CCCC(C)CCCC(C)CCCC(C)C)C3C` (stereo not shown) [Compound 5] as the compound, how does the IC50 [1] read?
Answer: Its IC50 is 17 µM.

Question: What about the IC50 (DPPH scavenging assay) of the same compound?
Answer: The IC50 was roughly 160 µM.

Question: What about the “superoxide anion scavenging ability as concentration increased” value [2] of the same compound?
Answer: Its value is “a gradual increase and a subsequent plateau in their scavenging ability”.

Question: Which IC50 [1] does the source give for `C=Cc1c(C)c2cc3nc(c4c5[nH]c(cc6nc(cc1[nH]2)C(C=O)=C6CC)c(C)c5C(=O)C4C(=O)OC)C(CCC(=O)OCC=C(C)CCCC(C)CCCC(C)CCCC(C)C)C3C` (stereo not shown) [Compound 6] here?
Answer: The IC50 was 54 µM.

Question: And the IC50 (DPPH scavenging assay)?
Answer: Its IC50 is roughly 120 µM.

Question: And the “superoxide anion scavenging ability as concentration increased” value [2]?
Answer: The value was “a gradual increase and a subsequent plateau in their scavenging ability”.

Question: With `Cc1c(C)c2c(c(C)c1O)CCC(C)(C(=O)O)O2` (stereo not shown) [Trolox, reference compound] as the compound, how does the IC50 [1] read?
Answer: The IC50 was roughly 16 µM.

Question: With `C=Cc1c(C)c2cc3nc(c4c5[nH]c(cc6nc(cc1[nH]2)C(C)=C6CC)c(C)c5C(=O)[C@@H]4C(=O)OC)[C@@H](CCC(=O)OC/C=C(\C)CCC[C@H](C)CCC[C@H](C)CCCC(C)C)[C@@H]3C` [chlorophyll a, reference compound] as the compound, how does the IC50 [1] read?
Answer: The IC50 was 5 µM.

Question: And the IC50 (DPPH scavenging assay)?
Answer: The IC50 was roughly 265 µM.

Question: For `C=Cc1c(C)c2cc3nc(c4c5[nH]c(cc6nc(cc1[nH]2)C(C=O)=C6CC)c(C)c5C(=O)[C@@H]4C(=O)OC)[C@@H](CCC(=O)OC/C=C(\C)CCC[C@H](C)CCC[C@H](C)CCCC(C)C)[C@@H]3C` [chlorophyll b, reference compound], which IC50 [1] is on record?
Answer: The IC50 was 26 µM.

Question: And the IC50 (DPPH scavenging assay)?
Answer: The IC50 was roughly 200 µM.
